pIC50: −log10 of the molar value. Values after ≈ are worked out from the molar mass of the structure shown. Read-outs that look alike come from different tables or passages of the source.
Legend:
[1] = biological target: SARS-CoV-2 M^PRO (Severe acute respiratory syndrome coronavirus 2, UniProt P0DTD1); experiment: biochemical; type: biochemical
[2] = tested on: M^PRO; conditions: read-out: reported bioassay IC50 (M^PRO); reported for the co-crystallized inhibitors (PDB 7CBT, 6W63); ref not given; cited from earlier work
[3] = tested on: SARS-CoV-2 (hCoV-19/Egypt/NRC-03/2020); experiment: microbe, parasite or virus in culture; type: cell-based; conditions: for selectivity index CC50/IC50: CC50 (VERO-E6) / antiviral IC50
[4] = parameters: method as in earlier work; conditions: dose of 5 mg/day to 2600 mg/day, without any toxic symptoms; cited from earlier work
[5] = parameters: method as in PMID 24924310; conditions: cited from earlier work
[6] = MTT cytotoxicity assay; conditions: African green monkey
[7] = in vitro; conditions: African green monkey
[8] = tested on: SARS-CoV-2 infection; parameters: method as in PMID 33203926; conditions: read-out: IC50 against SARS-CoV-2 infection; cited from earlier work
[9] = parameters: method as in PMID 33203926; conditions: cited from earlier work
[10] = cited from earlier work
[11] = relative to GC376 standard inhibitor, read-out: IC50 on SARS-CoV-2 viral main protease
[12] = Severe acute respiratory syndrome coronavirus 2, Vero C1008, read-out: IC50 antiviral activity against SARS-CoV-2
[13] = Severe acute respiratory syndrome coronavirus 2, Vero C1008, hCoV-19/Egypt/NRC-03/2020 on Vero-E6 cells, read-out: IC50 antiviral activity against SARS-CoV-2

In the case of `COc1ccc(-c2cc(=O)c3c(O)c(OC)c(OC)c(OC)c3o2)cc1` [Gardenin B], the “% Inhibition of SARS-CoV-2 M^PRO by isolated compounds” value (“% Inhibition of SARS-CoV-2 M^PRO” below) [1] was 1.00%.
In the case of `CC(C)C[C@H](NC(=O)OCc1ccccc1)C(=O)N[C@@H](CC1CCNC1=O)C(O)S(=O)(=O)O` (stereo partly drawn) [GC376], the pIC50 [2] is given as 7.59.
In the case of `CC1=CC(=O)C(C(C)C)=CC1=O` [Thymoquinone], the “% Inhibition of SARS-CoV-2 M^PRO” value ([1]; FRET assay, isolated compounds) was 63.21%, the pIC50 [1, 11] was 4.99 and the “selectivity index CC50/IC50” value [3] was 1.33. For the same compound, the IC50 [3, 12] was 6.14 µg/mL (≈ 37.4 µM), the clinical safety [4] was “safe” and the elimination ([5]; after oral and IV administration) was “rapid-elimination properties”. For the same compound, the “absorption following oral administration” value ([5]; oral) was “relatively slower absorption” and the CC50 ([6]; VERO-E6 cells) was 8.2 µg/mL (≈ 49.9 µM).
With `COc1cc(-c2cc(=O)c3c(O)c(OC)c(OC)c(OC)c3o2)cc(OC)c1OC` [Gardenin A] the “% Inhibition of SARS-CoV-2 M^PRO” value [1] was 73.80%, the pIC50 [1, 11] was 5.22 and the “selectivity index CC50/IC50” value [3] was 2.9. For the same compound, the IC50 [3, 13] was 83.8 µg/mL (≈ 200 µM) and the CC50 [7] was 246 µg/mL (≈ 589 µM).
With `CCCCC[C@H](O)CC(=O)CCc1ccc(O)c(OC)c1` [6-Gingerol] the “% Inhibition of SARS-CoV-2 M^PRO” value [1] was 65.2%, the pIC50 [1] was 5.03 and the “selectivity index CC50/IC50” value [3] was 2.3. The IC50 [3, 12] was 43.5 µg/mL (≈ 148 µM), the pIC50 [8] was under 4.00 and the CC50 [9] was over 100 µM. The “absorption after oral administration” value ([10]; detected in blood as glucuronide and sulfate conjugates) was “well-absorbed”, the “toxicity / tolerability in humans” value ([10]; doses up to 2.0 g daily, only mild gastrointestinal complaints) was “low levels of toxicity and high levels of tolerability” and the CC50 [6] was 101 µg/mL (≈ 344 µM).
With `CCCCCCCC(=O)CCc1ccc(O)c(OC)c1` [6-Paradol] the “% Inhibition of SARS-CoV-2 M^PRO” value ([1]; FRET assay, isolated compounds) was 71.8%, the pIC50 [1, 11] was 6.77 and the “selectivity index CC50/IC50” value [3] was 0.6. It also gave an IC50 [3, 13] of 281 µg/mL (≈ 1010 µM) and a CC50 [7] of 155 µg/mL (≈ 557 µM).
In the case of `CC(C)(C)c1ccc(N(C(=O)c2cnc[nH]2)[C@@H](C(=O)NC2CCCCC2)c2cccnc2)cc1` [X77], the pIC50 [2] is given as 5.64.
